Converted amounts (≈) assume the structure as drawn. Read-outs that look alike come from different tables or passages of the source. Marks after values point to notes of the source that are not given here. Starred links: 1 amine or outer side, 2 acyl side, 3 side chain; linkers in the order of their positions; H or OH if unused. Positions of bridges follow the written chain, without caps; N, C: chain ends. Non-standard residues stand in square brackets, D forms with d. Residues, ends and D or L forms follow the SMILES beside them. Chains are numbered I, II in the order given. Actinocin(9to1) = Cc1c2oc3c(C)ccc(C(=O)[*:1])c3nc-2c(C(=O)[*:2])c(N)c1=O; NMeV = CN[C@H](C(=O)O)C(C)C; Sar = CNCC(=O)O
What was measured:
[1] = clinical drugs, from reference (12); cited from earlier work
[2] = system: HeLa cell lines (from a human uterine cervix carcinoma); experiment: Cytostatic and cytocidal activity in vitro, HeLa cell cultures; type: cell-based
Description: (§1) The cytostatic and cytocidal activity of BBPh has been evaluated employing HeLa cell lines (from a human uterine cervix carcinoma), ADLD-clon (from a human malignant melanona) and a semicontinuos LMMB cell line (from normal human tonsilar fibroblasts).
(§2) In order to perform both "in vitro" and "in vivo" experiments a concentrated stock solution of BBPh in dimethyl sulfoxide (DMSO) was prepared. From it increasing diluted solutions in McCoy's R5aI grown medium supplemented with 5% human serum, 5% calf serum, 5% fetal bovine serum, 100 IU/mL penicillin, 100 ug/mL streptomycin and 16 ug/mL gentamycin were obtained.
(§3) Serial dilutions of BBPh and the solvent were assayed in cultures seeded 24 hours before on 96-well "Microtiter" plates. The seeding was carried out by depositing 200 µL of cell suspension in growth medium in each well, adjusted to 3 x 10^5/mL HeLa cells, 9 x 10^5/mL ADLD-clon cells or 4 x 10^5/mL LMMB cells.
(§4) The plates with different concentrations of BBPh and control solutions were incubated at 37°C in a humidily saturated air containing 5% CO2.
(§5) Then the plates were fixed and stained to stimate the effects of BBPh under the conditions described by Alvarez (1986) (11) taken Adriamycin as antitumoral compound of reference. […]

[3] = system: ADLD-clon (from a human malignant melanona); experiment: Cytostatic and cytocidal activity in vitro, ADLD-clon cell cultures; type: cell-based
Description: as §1, §2, §3, §4, §5

[4] = system: LMMB cell line (from normal human tonsilar fibroblasts); experiment: Cytostatic and cytocidal activity in vitro, LMMB normal cell cultures; type: cell-based; conditions: Fibroblast
Description: as §1, §2, §3, §4, §5

[5] = system: Trichomonas vaginalis (Srain G); experiment: microbe, parasite or virus in culture; conditions: for MCC: read-out: Trichomonacidal activity MCC; for MIC: read-out: Trichomonacidal activity MIC
Description: The cultures of the strains of Trichomonas vaginalis (Srain G) used as experimental model were grown in Diamond Medium (TYM) without agar (100.000 organisms/mL). […] Minimal inhibition concentration (MIC) and Minimal cytocidal concentration (MCC) were established in accordance with the definitions proposed by Escario et al. (19).

T. cruzi = experiment: Trypanosomicide activity in vitro in infected NMRI mice blood; type: cell-based, Trypanosoma cruzi; conditions: 24 h at 4°C; for N° Tryp/mL: controls Cd 298, Ct 247
pKa of BBPh = type: physicochemical
Source text: Some anticancer drugs such as mitomycin C and antinomycin D which interact with nucleic acids have shown activity against Trypanosoma cruzi (16). […] Following a similar behaviour the 1,4-bis(buthylamino)benzo[g] phthalazine (BBPh) which is able to form 1,4-bis(buthylamino) benzo[g]phthalazinium cations at physiological PH (PKa of BBPh = 8.6) and is a potential intercalating agent has shown both, antineoplasic and trypanosomicide activities.

[6] = system: Ehrlich ascites cancer cells; experiment: In vivo antitumoral activity, subcutaneous transplant of Ehrlich ascites cancer cells in mice; design: species or system swiss mice
Description: Five groups of six 2-month male swiss mice weighing 25 grams were disposed. Each animal received a transplant of 10^5 Ehrlich ascites cancer cells by the subcutaneous route in the interscapular region. Fourteen days later, when the tumors were evident and measured more than 3 millimeter in diameter, the animals were submitted to the different treatments.
Group 1 received a first intraperitoneal dose of 300 µL of DMSO followed by equal subcutaneous doses, the next three consecutive days.
Group 2 received a single intraperitoneal dose of 100 µg of BBPh solubilized in 300 µL of DMSO, followed by equal subcutaneous doses the next three consecutive days.
Group 3 received a single intraperitoneal dose of 500 µg of BBPh in 300 µL of DMSO.
Group 4 received a single intraperitoneal dose of 1.000 µg of BBPh in 300 µL of DMSO.
Group 5 received a single subcutaneous dose of 4.000 µg BBPh in an oily solution.

[7] = 50 per 100 lethal dose (LD50) of BBPh and toxicity in mice; type: in vivo; conditions: DMSO as solvent
[8] = group 5: BBPh in oily solution 1 x 4.0 mg s.c. (160 mg/kg)
[9] = overall dose 40 mg/Kg: single i.p. dose of 1.0 mg in DMSO

Q: With `Cc1c2oc3c(C)ccc(C(=O)N[C@@H]4C(=O)N[C@H](C(C)C)C(=O)N5CCC[C@H]5C(=O)N(C)CC(=O)N(C)[C@@H](C(C)C)C(=O)O[C@@H]4C)c3nc-2c(C(=O)N[C@@H]2C(=O)N[C@H](C(C)C)C(=O)N3CCC[C@H]3C(=O)N(C)CC(=O)N(C)[C@@H](C(C)C)C(=O)O[C@@H]2C)c(N)c1=O` [Actinomicin D] (I: T[dV]P[Sar][NMeV] / II: T[dV]P[Sar][NMeV]; ester I:1-I:C, II:1-II:C; linker I:N-II:N via Actinocin(9to1)) as the molecule, how does the LD50 [1] read?
A: Its LD50 is 0.095 mg/kg.

Q: Which IC50 ([2]; read-out: ID50) does the source give for `COc1cccc2c1C(=O)c1c(O)c3c(c(O)c1C2=O)C[C@@](O)(C(=O)CO)C[C@@H]3O[C@H]1C[C@H](N)[C@H](O)[C@H](C)O1` [Adriamycin, reference compound] here?
A: Its IC50 is 0.33 µg/mL (≈ 0.607 µM).

Q: And the IC50 ([3]; read-out: ID50)?
A: The IC50 was 0.33 µg/mL (≈ 0.607 µM).

Q: What about the IC50 ([4]; read-out: ID50) of the same molecule?
A: Its IC50 is 0.07 µg/mL (≈ 0.129 µM).

Q: For `CCCCNc1nnc(NCCCC)c2cc3ccccc3cc12` [BBPh, 1,4-bis(n-butylamino)benzo[g]phthalazine], which IC50 ([2]; concentration producing death or growth inhibition of 50% of the cells, read-out: ID50 (the source's name)) is on record?
A: The IC50 was 0.67 µg/mL (≈ 2.08 µM).

Q: What about the MCC [5] of the same molecule?
A: Its MCC is 10 to 25 µg/mL.

Q: And the MIC [5]?
A: The MIC was 5 to 10 µg/mL (≈ 15.5 to 31 µM).

Q: And the “N° Tryp/mL” value (T. cruzi; BBPh 75 µg/mL)?
A: The value was 0 Tryp/mL.

Q: What about the “N° Tryp/mL” value (T. cruzi; BBPh 125 µg/mL) of the same molecule?
A: Its value is 0 Tryp/mL.

Q: And the “N° Tryp/mL” value (T. cruzi; BBPh 250 µg/mL)?
A: The value was 0 Tryp/mL.

Q: What about the “N° Tryp/mL” value (T. cruzi; BBPh 500 µg/mL) of the same molecule?
A: Its value is 0 Tryp/mL.

Q: What about the “N° Tryp/mL” value (T. cruzi; BBPh 1000 µg/mL) of the same molecule?
A: Its value is 0 Tryp/mL.

Q: And the parasitemia (T. cruzi; all samples, 1000 to 75 ug/mL)?
A: Its parasitemia is “negative parasitemia”.

Q: What about the pKa (pKa of BBPh) of the same molecule?
A: The pKa was 8.6.

Q: What about the T/S ([6]; group 2: BBPh in DMSO 1 x 0.1 mg i.p. + 3 x 0.1 mg s.c.) of the same molecule?
A: The T/S was 6/5.

Q: And the “SURVIVAL(DAYS) MST” value ([6]; group 2: BBPh in DMSO 1 x 0.1 mg i.p. + 3 x 0.1 mg s.c., DMSO control 59)?
A: The value was 84 days.

Q: And the “SURVIVAL(DAYS) MST” value [6, 8]?
A: Its value is 86 days.

Q: What about the T/S [6, 8] of the same molecule?
A: Its T/S is 5/5.

Q: What about the Toxic death ([6]; overall dose 16 mg/Kg: 0.1 mg i.p. then similar s.c. doses next three days, DMSO) of the same molecule?
A: Its Toxic death is 1/6.

Q: What about the “T/C (%)” value ([6]; overall dose 16 mg/Kg: 0.1 mg i.p. then similar s.c. doses next three days, DMSO, active when > 125%) of the same molecule?
A: The value was 142^f %.

Q: What about the “TST” value ([6]; overall dose 16 mg/Kg: 0.1 mg i.p. then similar s.c. doses next three days, DMSO, control 59) of the same molecule?
A: The value was 84 days.

Q: What about the Toxic death ([6]; overall dose 20 mg/Kg: single i.p. dose of 0.5 mg in DMSO) of the same molecule?
A: Its Toxic death is 4/6.

Q: And the “T/C (%)” value ([6]; overall dose 20 mg/Kg: single i.p. dose of 0.5 mg in DMSO, active when > 125%)?
A: Its value is 161^f %.

Q: And the “TST” value ([6]; overall dose 20 mg/Kg: single i.p. dose of 0.5 mg in DMSO, control 59)?
A: The value was 96 days.

Q: What about the “T/C (%)” value [6, 9] of the same molecule?
A: The value was “Toxic”.

Q: What about the “TST” value [6, 9] of the same molecule?
A: The value was 1 days.

Q: And the Toxic death [6, 9]?
A: Its Toxic death is 6/6.

Q: And the IC50 ([3]; ADLD-clon, concentration producing death or growth inhibition of 50% of the cells, read-out: ID50 (the source's name))?
A: Its IC50 is 0.67 µg/mL (≈ 2.08 µM).

Q: And the toxicity ([7]; i.p., single dose of 20 mg/Kg)?
A: Its toxicity is “toxic”.

Q: And the LD50 ([7]; mouse, in vivo, ip, BBPh)?
A: The LD50 was 12 mg/kg.

Q: What about the IC50 ([4]; LMMB normal cells, concentration producing death or growth inhibition of 50% of the cells, read-out: ID50 (the source's name)) of the same molecule?
A: Its IC50 is 1.08 µg/mL (≈ 3.35 µM).

Q: With `COc1cccc2c1C(=O)c1c(O)c3c(c(O)c1C2=O)C[C@@](O)(C(C)=O)C[C@@H]3O[C@H]1C[C@H](N)[C@H](O)[C@H](C)O1` [Daunomycin] as the molecule, how does the LD50 [1] read?
A: Its LD50 is 9.2 mg/kg.

Q: With `Cc1ncc([N+](=O)[O-])n1CCO` [Metronidazole, reference compound] as the molecule, how does the MCC [5] read?
A: The MCC was 8 µg/mL.

Q: What about the MIC [5] of the same molecule?
A: Its MIC is 4 to 8 µg/mL (≈ 23.4 to 46.7 µM).

Q: For `CC[C@]1(O)C[C@H]2CN(CCc3c([nH]c4ccccc34)[C@@](C(=O)OC)(c3cc4c(cc3OC)N(C=O)[C@H]3[C@@](O)(C(=O)OC)[C@H](OC(C)=O)[C@]5(CC)C=CCN6CC[C@]43[C@@H]65)C2)C1` [Vincristine], which LD50 [1] is on record?
A: The LD50 was 4.5 mg/kg.

Source: patent EP0440787B1, “COMPOUNDS OF 1,4-BIS(AMINO)BENZO(G)PHTHALAZENE” (CONSEJO SUPERIOR DE INVESTIGACIONES CIENTIFICAS, priority 1989, dated 1990)
